Measured values from ChEMBL document CHEMBL1933058, “5-(2-amino-pyrimidin-4-yl)-1H-pyrrole and 2-(2-amino-pyrimidin-4-yl)-1,5,6,7-tetrahydro-pyrrolo[3,2-c]pyridin-4-one derivatives as new classes of selective and orally available Polo-like kinase 1 inhibitors” (Bioorg Med Chem Lett, 2012).
≈ marks a conversion by molar mass, not a printed value.

How the values were obtained:
[1] = target: Serine/threonine-protein kinase PLK2 (Homo sapiens, UniProt Q9NYY3); experiment: Inhibition of PLK2
[2] = target: Serine/threonine-protein kinase PLK3 (Homo sapiens, UniProt Q9H4B4); experiment: Inhibition of PLK3
[3] = target: Cyclin-dependent kinase 2/cyclin A (Homo sapiens, UniProt P24941); experiment: Inhibition of CDK2/cyclin A; assay type: protein-complex assay
Aurora kinase A = target: T1, Aurora kinase A (Homo sapiens, UniProt O14965); experiment: Inhibition of Aurora-A
T1 sequence (O14965 whole entry): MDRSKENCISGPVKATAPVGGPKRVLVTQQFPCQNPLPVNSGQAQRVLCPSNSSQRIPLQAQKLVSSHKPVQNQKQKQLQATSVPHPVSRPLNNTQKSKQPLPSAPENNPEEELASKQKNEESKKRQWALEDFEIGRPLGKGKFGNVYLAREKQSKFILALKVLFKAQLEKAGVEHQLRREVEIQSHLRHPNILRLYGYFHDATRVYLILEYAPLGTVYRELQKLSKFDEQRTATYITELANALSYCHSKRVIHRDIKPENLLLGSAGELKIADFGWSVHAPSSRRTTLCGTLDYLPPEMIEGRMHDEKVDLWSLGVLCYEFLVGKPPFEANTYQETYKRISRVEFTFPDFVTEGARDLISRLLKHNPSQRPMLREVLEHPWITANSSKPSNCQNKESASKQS

A2780 = experiment: Antiproliferative activity against human A2780 cells; assay type: functional, cell-based
[4] = Inhibition of CK2
[5] = target: Tyrosine-protein kinase ABL1 (Homo sapiens, UniProt P00519); experiment: Inhibition of c-ABL
[6] = target: RAC-alpha serine/threonine-protein kinase (Homo sapiens, UniProt P31749); experiment: Inhibition of AKT1
Aurora kinase B = Aurora kinase B (Homo sapiens, UniProt Q96GD4); experiment: Inhibition of Aurora-B
[7] = target: Protein-tyrosine kinase 6 (Homo sapiens, UniProt Q13882); experiment: Inhibition of BRK
[8] = target: Cell division cycle 7-related protein kinase (Homo sapiens, UniProt O00311); experiment: Inhibition of CDC7
Sequence of Cell division cycle 7-related protein kinase (O00311 whole entry): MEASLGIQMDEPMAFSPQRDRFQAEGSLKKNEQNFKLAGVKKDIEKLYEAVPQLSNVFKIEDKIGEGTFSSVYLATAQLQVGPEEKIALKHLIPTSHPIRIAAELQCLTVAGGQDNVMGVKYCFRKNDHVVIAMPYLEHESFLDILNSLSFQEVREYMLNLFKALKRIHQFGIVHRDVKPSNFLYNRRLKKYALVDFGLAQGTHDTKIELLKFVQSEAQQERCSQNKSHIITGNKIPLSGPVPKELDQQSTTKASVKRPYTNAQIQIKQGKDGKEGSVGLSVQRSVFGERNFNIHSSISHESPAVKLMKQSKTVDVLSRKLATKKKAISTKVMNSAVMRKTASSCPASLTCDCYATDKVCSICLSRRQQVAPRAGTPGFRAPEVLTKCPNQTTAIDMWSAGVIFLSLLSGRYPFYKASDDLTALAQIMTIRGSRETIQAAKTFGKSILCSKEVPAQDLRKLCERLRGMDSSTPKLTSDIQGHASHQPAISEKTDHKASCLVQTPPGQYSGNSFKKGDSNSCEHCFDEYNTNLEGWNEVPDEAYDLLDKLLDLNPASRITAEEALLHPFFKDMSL

[9] = target: Cyclin-dependent kinase 1/cyclin B1 (Homo sapiens, UniProt P06493); experiment: Inhibition of CDK1/cyclin B; assay type: protein-complex assay
[10] = target: Cyclin-dependent kinase 2/cyclin E1 (Homo sapiens, UniProt P24941); experiment: Inhibition of CDK2/cyclin E; assay type: protein-complex assay
[11] = target: Cyclin-dependent kinase 4/cyclin D1 (Homo sapiens, UniProt P11802); experiment: Inhibition of CDK4/cyclin D1; assay type: protein-complex assay
Sequence of Cyclin-dependent kinase 4/cyclin D1 (P11802 whole entry): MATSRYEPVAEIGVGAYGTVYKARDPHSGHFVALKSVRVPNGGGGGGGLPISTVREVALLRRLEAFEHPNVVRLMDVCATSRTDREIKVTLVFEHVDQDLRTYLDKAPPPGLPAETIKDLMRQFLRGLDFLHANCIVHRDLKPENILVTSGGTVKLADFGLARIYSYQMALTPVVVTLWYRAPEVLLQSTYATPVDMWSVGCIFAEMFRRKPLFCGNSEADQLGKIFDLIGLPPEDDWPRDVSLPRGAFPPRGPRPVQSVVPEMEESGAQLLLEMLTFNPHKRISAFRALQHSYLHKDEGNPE
Sequence of Cyclin-dependent kinase 4/cyclin D1 (P24385 whole entry, further chain): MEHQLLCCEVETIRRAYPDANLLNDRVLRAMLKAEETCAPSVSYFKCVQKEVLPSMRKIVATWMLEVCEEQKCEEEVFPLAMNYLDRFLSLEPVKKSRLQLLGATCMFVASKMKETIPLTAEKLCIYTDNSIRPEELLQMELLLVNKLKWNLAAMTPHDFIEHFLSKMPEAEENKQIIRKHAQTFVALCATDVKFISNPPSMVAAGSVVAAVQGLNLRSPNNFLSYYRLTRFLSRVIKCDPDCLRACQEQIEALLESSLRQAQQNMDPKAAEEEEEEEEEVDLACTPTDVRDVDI

[12] = target: Cyclin-dependent kinase 5 activator 1 (Homo sapiens, UniProt Q15078); experiment: Inhibition of CDK5/P25
Sequence of Cyclin-dependent kinase 5 activator 1 (Q15078 whole entry): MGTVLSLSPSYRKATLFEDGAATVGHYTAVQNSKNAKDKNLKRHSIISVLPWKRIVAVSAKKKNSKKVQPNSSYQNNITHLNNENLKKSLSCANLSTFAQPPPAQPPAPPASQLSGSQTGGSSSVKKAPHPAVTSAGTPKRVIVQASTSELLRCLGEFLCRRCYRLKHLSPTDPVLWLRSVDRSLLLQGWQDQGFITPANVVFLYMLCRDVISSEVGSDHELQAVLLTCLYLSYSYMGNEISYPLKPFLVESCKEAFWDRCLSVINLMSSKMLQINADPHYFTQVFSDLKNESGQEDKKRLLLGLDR

[13] = target: Serine/threonine-protein kinase Chk1 (Homo sapiens, UniProt O14757); experiment: Inhibition of CHK1
Sequence of Serine/threonine-protein kinase Chk1 (O14757 whole entry): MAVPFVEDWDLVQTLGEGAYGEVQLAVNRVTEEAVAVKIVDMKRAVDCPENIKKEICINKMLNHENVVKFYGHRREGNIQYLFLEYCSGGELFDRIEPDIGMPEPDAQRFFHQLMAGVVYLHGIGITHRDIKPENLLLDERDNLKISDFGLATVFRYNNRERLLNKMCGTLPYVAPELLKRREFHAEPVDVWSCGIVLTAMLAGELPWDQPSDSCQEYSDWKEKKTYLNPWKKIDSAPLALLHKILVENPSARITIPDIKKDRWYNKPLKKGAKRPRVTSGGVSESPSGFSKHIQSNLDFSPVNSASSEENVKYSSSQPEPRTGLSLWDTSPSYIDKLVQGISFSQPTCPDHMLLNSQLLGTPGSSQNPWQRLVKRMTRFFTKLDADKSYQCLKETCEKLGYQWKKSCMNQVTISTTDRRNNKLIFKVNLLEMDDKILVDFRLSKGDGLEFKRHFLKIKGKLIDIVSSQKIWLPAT

[14] = target: Epidermal growth factor receptor (Homo sapiens, UniProt P04626+P00533+Q15303+P21860); experiment: Inhibition of EGFR1; assay type: protein assay
[15] = target: Mitogen-activated protein kinase 1 (Homo sapiens, UniProt P28482); experiment: Inhibition of ERK2
[16] = target: Fibroblast growth factor receptor 1 (Homo sapiens, UniProt P11362); experiment: Inhibition of FGFR1
Sequence of Fibroblast growth factor receptor 1 (P11362 whole entry): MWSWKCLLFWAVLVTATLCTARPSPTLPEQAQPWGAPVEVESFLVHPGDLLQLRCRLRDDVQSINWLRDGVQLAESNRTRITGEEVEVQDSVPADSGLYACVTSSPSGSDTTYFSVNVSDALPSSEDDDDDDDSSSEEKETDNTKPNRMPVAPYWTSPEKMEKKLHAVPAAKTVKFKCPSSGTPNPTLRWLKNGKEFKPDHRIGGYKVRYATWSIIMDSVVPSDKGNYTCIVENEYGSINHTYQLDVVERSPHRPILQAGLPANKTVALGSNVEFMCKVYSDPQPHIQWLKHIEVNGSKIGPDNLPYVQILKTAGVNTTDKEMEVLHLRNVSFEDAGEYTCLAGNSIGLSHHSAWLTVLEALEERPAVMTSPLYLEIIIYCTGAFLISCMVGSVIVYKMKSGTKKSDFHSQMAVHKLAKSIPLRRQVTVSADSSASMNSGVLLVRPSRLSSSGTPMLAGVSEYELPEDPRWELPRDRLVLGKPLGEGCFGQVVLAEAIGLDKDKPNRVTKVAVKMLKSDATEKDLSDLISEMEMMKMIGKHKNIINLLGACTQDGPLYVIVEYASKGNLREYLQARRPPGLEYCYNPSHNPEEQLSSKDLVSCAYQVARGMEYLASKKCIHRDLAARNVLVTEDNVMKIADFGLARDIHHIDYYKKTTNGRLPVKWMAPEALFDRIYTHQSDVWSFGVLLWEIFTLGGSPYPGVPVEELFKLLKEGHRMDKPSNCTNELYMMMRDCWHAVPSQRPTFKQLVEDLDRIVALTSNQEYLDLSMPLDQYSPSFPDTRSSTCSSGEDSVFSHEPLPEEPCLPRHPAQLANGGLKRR

[17] = target: Glycogen synthase kinase-3 beta (Homo sapiens, UniProt P49841); experiment: Inhibition of GSK3-beta
Sequence of Glycogen synthase kinase-3 beta (P49841 whole entry): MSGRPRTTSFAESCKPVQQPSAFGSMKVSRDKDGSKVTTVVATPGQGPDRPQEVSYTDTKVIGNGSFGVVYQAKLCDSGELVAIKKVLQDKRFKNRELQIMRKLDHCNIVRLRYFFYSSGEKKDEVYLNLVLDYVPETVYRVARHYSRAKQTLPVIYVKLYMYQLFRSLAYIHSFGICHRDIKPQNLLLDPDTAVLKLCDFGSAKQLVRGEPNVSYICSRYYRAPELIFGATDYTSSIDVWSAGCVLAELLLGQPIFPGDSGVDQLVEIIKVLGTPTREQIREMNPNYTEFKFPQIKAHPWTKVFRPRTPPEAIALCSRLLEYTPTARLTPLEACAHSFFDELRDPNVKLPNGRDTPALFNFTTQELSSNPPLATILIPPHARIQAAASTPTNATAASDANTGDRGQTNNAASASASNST

[18] = target: Insulin-like growth factor 1 receptor (Homo sapiens, UniProt P08069); experiment: Inhibition of IGFR1
[19] = target: Inhibitor of nuclear factor kappa-B kinase subunit beta (Homo sapiens, UniProt O14920); experiment: Inhibition of IKK2
Insulin receptor = Insulin receptor (Homo sapiens, UniProt P06213); experiment: Inhibition of IR
[20] = target: Tyrosine-protein kinase JAK2 (Homo sapiens, UniProt O60674); experiment: Inhibition of JAK2
[21] = target: Mast/stem cell growth factor receptor Kit (Homo sapiens, UniProt P10721); experiment: Inhibition of KIT
[22] = target: Tyrosine-protein kinase Lck (Homo sapiens, UniProt P06239); experiment: Inhibition of LCK
[23] = target: MAP kinase-activated protein kinase 2 (Homo sapiens, UniProt P49137); experiment: Inhibition of MAP-KAPK2
Sequence of MAP kinase-activated protein kinase 2 (P49137 whole entry): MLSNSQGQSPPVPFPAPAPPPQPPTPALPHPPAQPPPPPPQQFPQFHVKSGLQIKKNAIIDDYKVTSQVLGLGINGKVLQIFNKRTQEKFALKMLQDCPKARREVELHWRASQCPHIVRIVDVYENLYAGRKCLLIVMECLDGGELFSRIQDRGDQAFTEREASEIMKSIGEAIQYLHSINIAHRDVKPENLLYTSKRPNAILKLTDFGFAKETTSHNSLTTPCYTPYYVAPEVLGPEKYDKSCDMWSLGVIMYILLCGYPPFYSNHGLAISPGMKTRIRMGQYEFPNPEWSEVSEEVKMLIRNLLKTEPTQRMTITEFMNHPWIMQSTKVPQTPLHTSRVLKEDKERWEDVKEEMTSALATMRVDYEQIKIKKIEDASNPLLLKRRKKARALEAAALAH

[24] = target: Hepatocyte growth factor receptor (Homo sapiens, UniProt P08581); experiment: Inhibition of MET
[25] = target: Serine/threonine-protein kinase 26 (Homo sapiens, UniProt Q9P289); experiment: Inhibition of MST4
[26] = target: Serine/threonine-protein kinase Nek6 (Homo sapiens, UniProt Q9HC98); experiment: Inhibition of NEK6
Sequence of Serine/threonine-protein kinase Nek6 (Q9HC98 whole entry): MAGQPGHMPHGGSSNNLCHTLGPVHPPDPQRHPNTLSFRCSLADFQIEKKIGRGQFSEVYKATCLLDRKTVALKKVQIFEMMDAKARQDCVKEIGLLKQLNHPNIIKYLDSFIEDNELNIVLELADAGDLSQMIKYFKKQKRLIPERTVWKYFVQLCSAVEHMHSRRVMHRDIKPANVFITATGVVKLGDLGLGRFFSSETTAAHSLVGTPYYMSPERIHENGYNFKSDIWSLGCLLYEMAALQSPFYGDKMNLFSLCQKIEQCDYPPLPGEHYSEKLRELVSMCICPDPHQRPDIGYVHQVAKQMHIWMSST

[27] = Inhibition of NIM
[28] = target: Mitogen-activated protein kinase 14 (Homo sapiens, UniProt Q16539); experiment: Inhibition of P38alpha
Sequence of Mitogen-activated protein kinase 14 (Q16539 whole entry): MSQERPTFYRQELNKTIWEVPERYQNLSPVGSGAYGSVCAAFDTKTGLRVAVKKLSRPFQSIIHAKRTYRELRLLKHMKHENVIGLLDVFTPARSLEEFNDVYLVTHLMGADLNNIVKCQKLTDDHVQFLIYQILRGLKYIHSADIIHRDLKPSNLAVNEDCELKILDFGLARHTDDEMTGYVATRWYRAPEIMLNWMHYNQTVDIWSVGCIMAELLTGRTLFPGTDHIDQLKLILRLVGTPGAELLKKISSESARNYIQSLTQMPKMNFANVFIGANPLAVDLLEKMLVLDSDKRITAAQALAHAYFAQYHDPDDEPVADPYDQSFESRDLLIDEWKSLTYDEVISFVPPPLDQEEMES

[29] = target: Serine/threonine-protein kinase PAK 4 (Homo sapiens, UniProt O96013); experiment: Inhibition of PAK4
Sequence of Serine/threonine-protein kinase PAK 4 (O96013 whole entry): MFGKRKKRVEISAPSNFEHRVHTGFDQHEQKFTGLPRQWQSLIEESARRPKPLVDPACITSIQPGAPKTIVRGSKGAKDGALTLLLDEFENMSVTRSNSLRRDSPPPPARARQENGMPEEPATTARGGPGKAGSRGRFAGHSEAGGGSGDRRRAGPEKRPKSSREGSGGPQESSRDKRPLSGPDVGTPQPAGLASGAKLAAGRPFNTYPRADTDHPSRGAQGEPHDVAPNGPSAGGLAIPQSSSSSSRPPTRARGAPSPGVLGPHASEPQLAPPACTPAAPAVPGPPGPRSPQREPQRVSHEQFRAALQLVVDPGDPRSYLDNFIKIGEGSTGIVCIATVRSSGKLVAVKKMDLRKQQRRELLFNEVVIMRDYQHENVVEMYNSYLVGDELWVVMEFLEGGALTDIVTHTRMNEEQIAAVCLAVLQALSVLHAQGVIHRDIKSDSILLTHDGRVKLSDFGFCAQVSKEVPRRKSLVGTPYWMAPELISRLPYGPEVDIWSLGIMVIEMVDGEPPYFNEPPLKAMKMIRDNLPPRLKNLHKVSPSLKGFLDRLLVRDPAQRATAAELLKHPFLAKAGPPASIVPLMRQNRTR

[30] = Inhibition of PDGFR
[31] = target: cAMP-dependent protein kinase catalytic subunit alpha (Homo sapiens, UniProt P17612); experiment: Inhibition of PKAalpha
[32] = target: Protein kinase C beta type (Homo sapiens, UniProt P05771); experiment: Inhibition of PKCbeta
[33] = target: Proto-oncogene tyrosine-protein kinase receptor Ret (Homo sapiens, UniProt P07949); experiment: Inhibition of RET
[34] = Inhibition of SULU1
[35] = target: High affinity nerve growth factor receptor (Homo sapiens, UniProt P04629); experiment: Inhibition of TRKA
[36] = target: Vascular endothelial growth factor receptor 2 (Homo sapiens, UniProt P35968); experiment: Inhibition of VEGFR2
[37] = target: Vascular endothelial growth factor receptor 3 (Homo sapiens, UniProt P35916); experiment: Inhibition of VEGFR3
A-375 = experiment: Antiproliferative activity against human A375 cells; assay type: functional, cell-based
HCT-116 = experiment: Antiproliferative activity against human HCT116 cells; assay type: functional, cell-based
LNCaP = experiment: Antiproliferative activity against human LNCAP cells; assay type: functional, cell-based
MDA-MB-468 = experiment: Antiproliferative activity against human MDA-MB-468 cells; assay type: functional, cell-based
K562 = experiment: Antiproliferative activity against human K562 cells; assay type: functional, cell-based
MOLM-13 = experiment: Antiproliferative activity against human MOLM13 cells; assay type: functional, cell-based
MOLT-4 = experiment: Antiproliferative activity against human MOLT4 cells; assay type: functional, cell-based
[38] = Antiproliferative activity against human SUP-M2 cells; assay type: functional, cell-based
Caco-2 = experiment: Apparent permeability across human Caco2 cells; assay type: ADME, cell-based
[39] = Apparent permeability of the compound by PAMPA; assay type: ADME
[40] = Intrinsic clearance in rat hepatocytes at 1 uM; assay type: ADME, cell-based, Liver, Hepatocyte; settings: read-out: CLH
[41] = Intrinsic clearance in human liver microsomes at 1 uM; assay type: ADME, Microsome; settings: read-out: CLH
[42] = Solubility of the compound at pH 7; assay type: physicochemical; settings: buffer
[43] = Tmax in Nu/Nu Balb Harlan mouse at 10 mg/kg, po; assay type: ADME, organism-based; parameters: dose 10 mg/kg, route oral; settings: in vivo

Structure (SMILES): CN1CCN(c2ccc(OC(F)(F)F)c(Nc3nccc(-c4cc(C(N)=O)cn4C)n3)c2)CC1
- IC50 [1]: > 10 µM
- IC50 [2]: > 10 µM
- IC50 [3]: > 10 µM
- IC50 (Aurora kinase A): > 10 µM
- IC50 (A2780): 360 nM
- IC50 [4]: 951 nM
- IC50 [5]: > 10 µM
- IC50 [6]: > 10 µM
- IC50 (Aurora kinase B): > 10 µM
- IC50 [7]: > 10 µM
- IC50 [8]: > 10 µM
- IC50 [9]: > 10 µM
- IC50 [10]: > 10 µM
- IC50 [11]: > 10 µM
- IC50 [12]: > 10 µM
- IC50 [13]: > 10 µM
- IC50 [14]: > 10 µM
- IC50 [15]: > 10 µM
- IC50 [16]: > 10 µM
- IC50 [17]: > 10 µM
- IC50 [18]: > 10 µM
- IC50 [19]: > 10 µM
- IC50 (Insulin receptor): > 10 µM
- IC50 [20]: > 10 µM
- IC50 [21]: > 10 µM
- IC50 [22]: > 10 µM
- IC50 [23]: > 10 µM
- IC50 [24]: > 10 µM
- IC50 [25]: > 10 µM
- IC50 [26]: > 10 µM
- IC50 [27]: > 10 µM
- IC50 [28]: > 10 µM
- IC50 [29]: > 10 µM
- IC50 [30]: > 10 µM
- IC50 [31]: > 10 µM
- IC50 [32]: > 10 µM
- IC50 [33]: > 10 µM
- IC50 [34]: > 10 µM
- IC50 [35]: > 10 µM
- IC50 [36]: > 10 µM
- IC50 [37]: > 10 µM
- IC50 (A-375): 386 nM
- IC50 (HCT-116): 520 nM
- IC50 (LNCaP): 280 nM
- IC50 (MDA-MB-468): 624 nM
- IC50 (K562): 590 nM
- IC50 (MOLM-13): 201 nM
- IC50 (MOLT-4): 253 nM
- IC50 [38]: 647 nM
- Papp (Caco-2): permeable
- Papp [39]: 50 ×10⁻⁶ cm/s
- CLint scaled at 1 µM [40]: 408 mL/min/kg
- CLint scaled at 1 µM [41]: 14.9 mL/min/kg
- solubility [42]: 174 µM (≈ 82.7 µg/mL)
- Tmax [43]: 30 min
